Earlier results as cited in patent US4758437A, “Composition for long acting nicardipine preparation and process of producing the composition” (Yamanouchi Pharmaceutical Co., Ltd., priority 1987, dated 1988).

Compound: COC(=O)C1=C(C)NC(C)=C(C(=O)OCCN(C)Cc2ccccc2)C1c1cccc([N+](=O)[O-])c1 (stereo not drawn) [nicardipine, 2,6-dimethyl-4-(3'-nitrophenyl)-1,4-dihydropyridine-3,5-dicarboxylic acid-3-methyl ester-5-β-(N-benzyl-N-methylamino)-ethyl ester]
- solubility in the first fluid of Japanese Pharmacopeia IX (about pH 1.2, nicardipine or its salt): good solubility
- solubility in the second fluid of Japanese Pharmacopeia IX (about pH 7.5): sparingly soluble
- solubility in intestinal juice (intestinal juice): practically insoluble
